From BigSolDB 2.1

CCc1nc(N)nc(N)c1-c1ccc(Cl)cc1
solubility (mole fraction)
Conditions | 278.15 K | 283.15 K | 288.15 K | 293.15 K | 298.15 K | 303.15 K | 308.15 K | 313.15 K | 318.15 K
in acetone | 0.0011 | 0.00125 | 0.00147 | 0.00171 | 0.0019 | 0.00215 | 0.00241 | 0.00272 | 0.0033
in acetonitrile | 9.12e-05 | 0.000108 | 0.000148 | 0.000198 | 0.00027 | 0.000383 | 0.000469 | 0.000596 | 0.000765
in ethanol | 0.000603 | 0.000809 | 0.000972 | 0.00109 | 0.00123 | 0.00147 | 0.00181 | 0.0022 | 0.00254
in ethyl acetate | 0.00141 | 0.00151 | 0.0017 | 0.00194 | 0.00218 | 0.00246 | 0.0029 | 0.00334 | 0.00389
in isobutanol | 0.000678 | 0.000904 | 0.0011 | 0.00125 | 0.0014 | 0.00167 | 0.00198 | 0.00238 | 0.00274
in isopropanol | 0.000234 | 0.000323 | 0.000456 | 0.00057 | 0.000709 | 0.000853 | 0.00104 | 0.00125 | 0.00152
in isopropyl acetate | 0.000583 | 0.000717 | 0.000861 | 0.00107 | 0.00129 | 0.00155 | 0.00185 | 0.00226 | 0.00259
in methanol | 0.000854 | 0.0011 | 0.00131 | 0.00151 | 0.00176 | 0.00203 | 0.00237 | 0.00278 | 0.00332
in methyl acetate | 0.000372 | 0.000482 | 0.000615 | 0.000811 | 0.00105 | 0.00127 | 0.00158 | 0.00186 | 0.0023
in n-butanol | 0.000802 | 0.000993 | 0.00124 | 0.00141 | 0.00164 | 0.00192 | 0.00227 | 0.00263 | 0.00317
in n-propanol | 0.000712 | 0.000936 | 0.00118 | 0.00135 | 0.00152 | 0.00179 | 0.00211 | 0.00252 | 0.00298
in n-propyl acetate | 0.000822 | 0.000952 | 0.00111 | 0.00136 | 0.00154 | 0.0018 | 0.0021 | 0.00243 | 0.00289
in sec-butanol | 0.000398 | 0.000554 | 0.000662 | 0.000824 | 0.00106 | 0.0013 | 0.00164 | 0.00198 | 0.00227
